Laboratory results taken from patent publication US7018979B1, “Method for using potassium channel agonists for delivering a medicant to an abnormal brain region and/or a malignant tumor” (Cedars-Sinai Medical Center, priority 2000, dated 2006).
Entries after “also recorded” stand apart in the source; their conditions may differ. Counter-ions that a name gives are not always drawn.

Key:
[1] = cited from earlier work
[2] = Arterial blood pressure monitored during intracarotid infusion; conditions: higher doses, 100 and 110 μg/kg/min

SMILES	solubility in water [1]	arterial blood pressure [2]
O=c1[nH]c2cc(C(F)(F)F)ccc2n1-c1cc(C(F)(F)F)ccc1O [NS-1619, 1,3-dihydro-1-[2-hydroxy-5-(trifluoromethyl)phenyl]-5-(trifluoromethyl)-2H-benzimidazol-2-one]	not easily dissolved in water	significant drop
CC1=NS(=O)(=O)c2cc(Cl)ccc2N1 [diazoxide]	not easily dissolved in water	–
CC(N/C(=N\C#N)Nc1ccncc1)C(C)(C)C (racemic) [pinacidil, (+/−)-N-cyano-N′-4-pyridinyl-N″-(1,2,2-trimethylpropyl)-guanidine]	insoluble in water; also recorded: not easily dissolved in water	–
Nc1cc(N2CCCCC2)nc(N)[n+]1OS(=O)(=O)[O-] [minoxidil sulfate]	not easily dissolved in water	–
